Assays:
[1] = Toxicity in db/db mouse assessed as increase in body weight at 300 mg/kg, po administered for 21 days; assay type: organism-based; conditions: in vivo, 504 h, time 21 day
[2] = Toxicity in db/db mouse assessed as reduction in triglyceride at 300 mg/kg, po administered for 21 days; assay type: organism-based; conditions: in vivo, 504 h, time 21 day
[3] = Toxicity in db/db mouse assessed as effect on muscle tissue morphology at 300 mg/kg, po bid administered for 21 days by H and E staining based microscopic analysis; assay type: organism-based; conditions: in vivo, 504 h, time 21 day
Mus musculus [4] = experiment: Antidiabetic activity in db/db mouse assessed as reduction in fasting blood glucose level at 300 mg/kg, po bid measured up to 21 days; assay type: functional; set-up: scale not given: the % may be the effect or the level left; conditions: time <= 21 day
Mus musculus [5] = experiment: Antidiabetic activity in db/db mouse assessed as reduction in blood glucose level at 300 mg/kg, po bid measured after 6 hrs; assay type: functional; set-up: scale not given: the % may be the effect or the level left
Mus musculus [6] = experiment: Antidiabetic activity in db/db mouse assessed as reduction in random blood glucose level at 300 mg/kg, po bid measured up to 21 days; assay type: functional; set-up: scale not given: the % may be the effect or the level left; conditions: time <= 21 day
[7] = Toxicity in db/db mouse assessed as reduction in total cholesterol at 300 mg/kg, po administered for 21 days; assay type: organism-based; conditions: in vivo, 504 h, time 21 day
[8] = Toxicity in db/db mouse assessed as effect on pancreas morphology at 300 mg/kg, po bid administered for 21 days by H and E staining based microscopic analysis; assay type: organism-based; conditions: in vivo, 504 h, time 21 day
[9] = Toxicity in db/db mouse liver assessed as reduction of fat accumulation in liver at 300 mg/kg, po bid administered for 21 days by H and E staining based microscopic analysis; assay type: organism-based; conditions: in vivo, 504 h, time 21 day

## CN(C)C(=N)NC(=N)N [METFORMIN]
[1]
  Activity: Non-Toxic
[2]
  Activity: Toxic
[3]
  Activity: Non-Toxic
Mus musculus [4]
  Activity: 26.6%
Mus musculus [5]
  Activity: 49.7%
Mus musculus [6]
  Activity: 40.3%
[7]
  Activity: Toxic
[8]
  Activity: Non-Toxic
[9]
  Activity: Toxic

Reference: ChEMBL document CHEMBL5154647, “Discovery of seneciobipyrrolidine derivatives for the amelioration of glucose homeostasis disorders through 4E-BP1/Akt/AMPK signaling activation” (Eur J Med Chem, 2022)
